The supplement of paper PMC10307832

Assays:
Assay in all cases: relative viability (nuclei count vs DMSO), 5 days (fraction); higher = more cells survive
A-427 = system: A-427
How it was run: (§1)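 For relative viability, nuclei counts in treated wells were divided by those in vehicle wells. Lung cancer cell lines had been pin-tool dosed in 1536-well plates the day after seeding and cultured for 5 days, then fixed and stained in one step (final 0.05% Triton X-100, 1% formaldehyde, 1 ug/ml Hoechst) and imaged at 4×. Doses were one drug alone or a fixed anchor-drug dose plus five library-drug doses (not always all listed) in √10 steps, and values are duplicate-plate medians.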

ABC-1 = system: ABC-1
How it was run: as §1

EMC-BAC-2 = system: EMC-BAC-2
How it was run: as §1

HARA = system: HARA
How it was run: as §1

HOP-62 = system: HOP-62
How it was run: as §1

LK-2 = system: LK-2
How it was run: as §1

LXF-289 = system: LXF-289
How it was run: as §1

NCI-H1944 = system: NCI-H1944
How it was run: as §1

NCI-H1993 = system: NCI-H1993
How it was run: as §1

NCI-H2009 = system: NCI-H2009
How it was run: as §1

NCI-H2170 = system: NCI-H2170
How it was run: as §1

NCI-H2228 = system: NCI-H2228
How it was run: as §1

NCI-H3122 = system: NCI-H3122
How it was run: as §1

NCI-H322M = system: NCI-H322M
How it was run: as §1

NCI-H522 = system: NCI-H522
How it was run: as §1

NCI-H596 = system: NCI-H596
How it was run: as §1

NCI-H727 = system: NCI-H727
How it was run: as §1

PC-3 [JPC-3] = system: PC-3 [JPC-3]
How it was run: as §1

SK-MES-1 = system: SK-MES-1
How it was run: as §1

SW 1573 = system: SW 1573
How it was run: as §1

SW 900 = system: SW 900
How it was run: as §1

`COc1cc2nccc(Oc3ccc(NC(=O)Nc4cc(C)on4)c(Cl)c3)c2cc1OC` [Tivozanib] + O=C(CCCCCCC(=O)Nc1ccccc1)NO [Vorinostat] (partner 1 µM) showed a relative viability (A-427; first compound 0.005 µM) of 0.741, a relative viability (A-427; first compound 0.01581 µM) of 0.888 and a relative viability (A-427; first compound 0.05 µM) of 0.824. The relative viability (A-427; first compound 0.1581 µM) was 0.857, the relative viability (A-427; first compound 0.5 µM) was 0.812 and the relative viability (ABC-1; first compound 0.005 µM) was 0.694. It also gave a relative viability (ABC-1; first compound 0.01581 µM) of 1.11, a relative viability (ABC-1; first compound 0.05 µM) of 1.3 and a relative viability (ABC-1; first compound 0.1581 µM) of 0.926. For the same compound, the relative viability (ABC-1; first compound 0.5 µM) was 0.842, the relative viability (EMC-BAC-2; first compound 0.005 µM) was 0.281 and the relative viability (EMC-BAC-2; first compound 0.01581 µM) was 0.548. The relative viability (EMC-BAC-2; first compound 0.05 µM) was 0.5, the relative viability (EMC-BAC-2; first compound 0.1581 µM) was 0.345 and the relative viability (EMC-BAC-2; first compound 0.5 µM) was 0.201. It also gave a relative viability (HARA; first compound 0.005 µM) of 0.422, a relative viability (HARA; first compound 0.01581 µM) of 0.456 and a relative viability (HARA; first compound 0.05 µM) of 0.594. It also gave a relative viability (HARA; first compound 0.1581 µM) of 0.563, a relative viability (HARA; first compound 0.5 µM) of 0.507 and a relative viability (HOP-62; first compound 0.005 µM) of 0.633. The relative viability (HOP-62; first compound 0.01581 µM) was 0.638, the relative viability (HOP-62; first compound 0.05 µM) was 0.652 and the relative viability (HOP-62; first compound 0.1581 µM) was 0.376. For the same compound, the relative viability (HOP-62; first compound 0.5 µM) was 0.434, the relative viability (LK-2; first compound 0.005 µM) was 0.317 and the relative viability (LK-2; first compound 0.01581 µM) was 0.352. The relative viability (LK-2; first compound 0.05 µM) was 0.33, the relative viability (LK-2; first compound 0.1581 µM) was 0.185 and the relative viability (LK-2; first compound 0.5 µM) was 0.186. For the same compound, the relative viability (LXF-289; first compound 0.005 µM) was 0.647, the relative viability (LXF-289; first compound 0.01581 µM) was 0.674 and the relative viability (LXF-289; first compound 0.05 µM) was 0.741. The relative viability (LXF-289; first compound 0.1581 µM) was 0.939, the relative viability (LXF-289; first compound 0.5 µM) was 0.684 and the relative viability (NCI-H1944; first compound 0.005 µM) was 0.443. The relative viability (NCI-H1944; first compound 0.01581 µM) was 0.59, the relative viability (NCI-H1944; first compound 0.05 µM) was 0.534 and the relative viability (NCI-H1944; first compound 0.1581 µM) was 0.5. The relative viability (NCI-H1944; first compound 0.5 µM) was 0.609, the relative viability (NCI-H1993; first compound 0.005 µM) was 0.692 and the relative viability (NCI-H1993; first compound 0.01581 µM) was 0.579. It also gave a relative viability (NCI-H1993; first compound 0.05 µM) of 0.965, a relative viability (NCI-H1993; first compound 0.1581 µM) of 0.618 and a relative viability (NCI-H1993; first compound 0.5 µM) of 0.585. The relative viability (NCI-H2009; first compound 0.005 µM) was 0.623, the relative viability (NCI-H2009; first compound 0.01581 µM) was 0.785 and the relative viability (NCI-H2009; first compound 0.05 µM) was 0.741. For the same compound, the relative viability (NCI-H2009; first compound 0.1581 µM) was 0.738, the relative viability (NCI-H2009; first compound 0.5 µM) was 0.621 and the relative viability (NCI-H2170; first compound 0.005 µM) was 0.74. For the same compound, the relative viability (NCI-H2170; first compound 0.01581 µM) was 0.782, the relative viability (NCI-H2170; first compound 0.05 µM) was 0.856 and the relative viability (NCI-H2170; first compound 0.5 µM) was 0.816. It also gave a relative viability (NCI-H2228; first compound 0.005 µM) of 0.606, a relative viability (NCI-H2228; first compound 0.01581 µM) of 0.723 and a relative viability (NCI-H2228; first compound 0.05 µM) of 0.761. The relative viability (NCI-H2228; first compound 0.1581 µM) was 0.599, the relative viability (NCI-H2228; first compound 0.5 µM) was 0.626 and the relative viability (NCI-H3122; first compound 0.005 µM) was 0.644. It also gave a relative viability (NCI-H3122; first compound 0.01581 µM) of 1.12, a relative viability (NCI-H3122; first compound 0.05 µM) of 0.97 and a relative viability (NCI-H3122; first compound 0.1581 µM) of 1.03. The relative viability (NCI-H3122; first compound 0.5 µM) was 0.822, the relative viability (NCI-H322M; first compound 0.005 µM) was 0.768 and the relative viability (NCI-H322M; first compound 0.01581 µM) was 0.857. For the same compound, the relative viability (NCI-H322M; first compound 0.05 µM) was 0.87, the relative viability (NCI-H322M; first compound 0.1581 µM) was 0.665 and the relative viability (NCI-H322M; first compound 0.5 µM) was 0.744. The relative viability (NCI-H522; first compound 0.005 µM) was 1, the relative viability (NCI-H522; first compound 0.01581 µM) was 1 and the relative viability (NCI-H522; first compound 0.05 µM) was 0.822. For the same compound, the relative viability (NCI-H522; first compound 0.1581 µM) was 0.721, the relative viability (NCI-H522; first compound 0.5 µM) was 0.809 and the relative viability (NCI-H596; first compound 0.005 µM) was 0.618. The relative viability (NCI-H596; first compound 0.01581 µM) was 0.569, the relative viability (NCI-H596; first compound 0.05 µM) was 0.683 and the relative viability (NCI-H596; first compound 0.5 µM) was 0.716. The relative viability (NCI-H727; first compound 0.005 µM) was 1.15, the relative viability (NCI-H727; first compound 0.01581 µM) was 1.26 and the relative viability (NCI-H727; first compound 0.05 µM) was 1.3. It also gave a relative viability (NCI-H727; first compound 0.1581 µM) of 0.841, a relative viability (NCI-H727; first compound 0.5 µM) of 1.22 and a relative viability (PC-3 [JPC-3]; first compound 0.01581 µM) of 0.814. It also gave a relative viability (PC-3 [JPC-3]; first compound 0.05 µM) of 0.801, a relative viability (PC-3 [JPC-3]; first compound 0.1581 µM) of 0.691 and a relative viability (PC-3 [JPC-3]; first compound 0.5 µM) of 0.592. It also gave a relative viability (SK-MES-1; first compound 0.005 µM) of 1.03, a relative viability (SK-MES-1; first compound 0.01581 µM) of 1.07 and a relative viability (SK-MES-1; first compound 0.05 µM) of 1.13. For the same compound, the relative viability (SK-MES-1; first compound 0.1581 µM) was 1.07, the relative viability (SK-MES-1; first compound 0.5 µM) was 0.996 and the relative viability (SW 1573; first compound 0.005 µM) was 0.614. For the same compound, the relative viability (SW 1573; first compound 0.01581 µM) was 0.935, the relative viability (SW 1573; first compound 0.05 µM) was 0.677 and the relative viability (SW 1573; first compound 0.1581 µM) was 0.506. It also gave a relative viability (SW 1573; first compound 0.5 µM) of 0.281, a relative viability (SW 900; first compound 0.005 µM) of 0.459 and a relative viability (SW 900; first compound 0.01581 µM) of 0.481. For the same compound, the relative viability (SW 900; first compound 0.05 µM) was 0.627 and the relative viability (SW 900; first compound 0.5 µM) was 0.464.
